Source: paper PMC8670242, “Functional Characterization and Structural Insights Into Stereoselectivity of Pulegone Reductase in Menthol Biosynthesis” (Frontiers in Plant Science, 2021)

Target: T1, ArPR (Agastache rugosa, UniProt A0A977TNC5)
T1 construct: pET28a (BamHI/SacI) His-tag fusion, E. coli BL21(DE3), Ni-NTA and gel filtration
Assay: in vitro reduction, GC
Assay type: biochemical
Conditions: NADPH

T1 sequence (A0A977TNC5 1-343): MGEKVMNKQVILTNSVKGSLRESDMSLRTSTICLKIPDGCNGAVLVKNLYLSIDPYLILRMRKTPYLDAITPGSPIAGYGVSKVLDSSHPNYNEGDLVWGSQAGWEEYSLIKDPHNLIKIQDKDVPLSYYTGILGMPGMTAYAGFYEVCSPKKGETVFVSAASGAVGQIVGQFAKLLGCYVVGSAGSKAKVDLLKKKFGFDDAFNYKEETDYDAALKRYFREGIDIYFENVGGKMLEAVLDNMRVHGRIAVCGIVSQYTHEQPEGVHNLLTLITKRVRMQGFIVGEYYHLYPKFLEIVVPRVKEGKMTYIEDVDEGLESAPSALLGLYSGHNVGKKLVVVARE

## CC(C)=C1CC[C@H](C)CC1=O [(−)-pulegone]
  in vitro reduction, GC: showed a higher preference for (−)-pulegone over (+)-pulegone
